Results: PMC12586667 (Scientific Reports, 2025)

How the values were obtained:
[1] = Measurement of drug absorption; type: physicochemical; conditions: within 2 h
[2] = test system: WT and genome-edited intestine-liver-on-a-chip (Caco-2 and HepG2 cells); test: Drug permeability assay; type: in vitro ADME, human; conditions: for drug concentration in the top channel / drug concentration in the bottom channel: WT and genome-edited chips
[3] = model drugs with minimal first-pass effects; cited from earlier work
[4] = coadministration; cited from earlier work
CYP1A2 = target: T1, CYP1A2 (Homo sapiens, UniProt P05177); test: CYP1A2 activity on chip by quantifying ISOPRO; type: in vitro ADME
T1 sequence (P05177 1-516): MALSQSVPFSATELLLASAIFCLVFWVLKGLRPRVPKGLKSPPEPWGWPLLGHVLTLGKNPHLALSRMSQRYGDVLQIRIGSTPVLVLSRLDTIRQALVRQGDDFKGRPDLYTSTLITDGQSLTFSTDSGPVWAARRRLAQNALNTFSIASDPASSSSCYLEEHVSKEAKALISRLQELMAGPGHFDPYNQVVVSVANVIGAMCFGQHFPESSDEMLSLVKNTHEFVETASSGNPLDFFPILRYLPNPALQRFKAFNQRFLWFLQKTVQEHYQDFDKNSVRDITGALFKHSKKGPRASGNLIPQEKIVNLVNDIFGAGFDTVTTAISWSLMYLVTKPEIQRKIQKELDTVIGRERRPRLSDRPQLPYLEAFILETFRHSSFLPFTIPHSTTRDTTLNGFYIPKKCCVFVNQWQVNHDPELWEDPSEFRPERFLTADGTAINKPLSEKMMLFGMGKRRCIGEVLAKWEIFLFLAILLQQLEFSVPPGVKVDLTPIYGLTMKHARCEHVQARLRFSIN

CYP2D6 = CYP2D6 (Homo sapiens, UniProt P10635); test: CYP2D6 activity on chip by quantifying 1-OH bufuralol; type: in vitro ADME
CYP2D6, sequence (P10635 whole entry): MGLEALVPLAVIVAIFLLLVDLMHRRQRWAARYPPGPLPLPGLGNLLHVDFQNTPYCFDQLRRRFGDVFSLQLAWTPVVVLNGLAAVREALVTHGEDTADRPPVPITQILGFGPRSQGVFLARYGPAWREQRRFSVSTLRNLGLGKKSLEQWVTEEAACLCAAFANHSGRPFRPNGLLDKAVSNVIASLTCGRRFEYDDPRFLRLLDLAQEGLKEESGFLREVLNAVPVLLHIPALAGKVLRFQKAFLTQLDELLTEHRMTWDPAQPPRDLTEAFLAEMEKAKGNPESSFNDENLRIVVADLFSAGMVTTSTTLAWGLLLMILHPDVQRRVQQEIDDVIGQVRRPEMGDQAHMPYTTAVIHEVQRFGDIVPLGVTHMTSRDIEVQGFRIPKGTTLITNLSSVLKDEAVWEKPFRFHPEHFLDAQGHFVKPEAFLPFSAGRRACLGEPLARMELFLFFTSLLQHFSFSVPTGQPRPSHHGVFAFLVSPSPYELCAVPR

[5] = test system: intestine-liver-on-a-chip (Caco-2 and HepG2 cells); test: Lucifer yellow permeability assay; type: in vitro ADME, human; conditions: WT and genome-edited chips vs WT or genome-edited Caco-2 mono-culture
CYP2C9 = CYP2C9 (Homo sapiens, UniProt P11712); test: CYP2C9 activity on chip by quantifying 4-OH diclofenac; type: in vitro ADME
CYP2C9, sequence (P11712 whole entry): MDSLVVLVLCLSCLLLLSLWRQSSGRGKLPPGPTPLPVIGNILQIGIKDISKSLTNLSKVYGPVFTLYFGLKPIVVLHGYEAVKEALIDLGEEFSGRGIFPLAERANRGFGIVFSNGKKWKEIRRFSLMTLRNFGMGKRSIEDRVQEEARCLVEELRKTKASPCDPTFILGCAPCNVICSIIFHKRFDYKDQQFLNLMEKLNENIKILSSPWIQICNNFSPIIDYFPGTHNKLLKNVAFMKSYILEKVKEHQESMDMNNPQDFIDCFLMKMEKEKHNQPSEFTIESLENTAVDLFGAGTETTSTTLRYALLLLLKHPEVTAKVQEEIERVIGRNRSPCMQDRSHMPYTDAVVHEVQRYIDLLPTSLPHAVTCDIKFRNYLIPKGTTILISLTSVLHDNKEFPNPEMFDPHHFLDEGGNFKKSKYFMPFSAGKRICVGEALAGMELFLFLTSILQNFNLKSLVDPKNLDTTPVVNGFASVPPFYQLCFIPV

CYP3A4 = CYP3A4 (Homo sapiens, UniProt P08684); test: CYP3A4 activity on chip by quantifying α-OH triazolam; type: in vitro ADME; conditions: flow conditions
CYP3A4, sequence (P08684 whole entry): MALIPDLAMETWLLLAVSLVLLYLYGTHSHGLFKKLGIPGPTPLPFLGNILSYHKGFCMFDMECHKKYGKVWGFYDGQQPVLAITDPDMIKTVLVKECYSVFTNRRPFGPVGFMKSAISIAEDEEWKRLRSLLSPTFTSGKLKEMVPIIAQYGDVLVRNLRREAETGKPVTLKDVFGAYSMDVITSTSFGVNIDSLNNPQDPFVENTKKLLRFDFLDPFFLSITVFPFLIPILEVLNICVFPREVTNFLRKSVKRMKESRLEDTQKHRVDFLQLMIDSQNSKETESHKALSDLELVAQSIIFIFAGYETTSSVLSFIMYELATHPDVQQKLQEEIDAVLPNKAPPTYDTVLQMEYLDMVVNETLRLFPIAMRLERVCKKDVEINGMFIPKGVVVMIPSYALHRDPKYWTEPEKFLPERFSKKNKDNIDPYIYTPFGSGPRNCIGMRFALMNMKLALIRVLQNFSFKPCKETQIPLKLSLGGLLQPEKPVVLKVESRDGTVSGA

[6] = Stability of metabolite in medium containing 10% FBS; type: in vitro ADME; conditions: could not be measured
[7] = both static and flow conditions

With `CCc1cccc2cc(C(O)CNC(C)(C)C)oc12` (centres unmarked) [bufuralol] the “adsorption onto the PDMS device” value [1] was “substantially adsorbed”, the “drug concentration, genome-edited chips vs WT chips” value (from here on “drug concentration … vs WT chips”) ([2]; after 48 h) was “slightly lower in the genome-edited chips than in the WT chips” and the “drug concentration in the top channel” value [2, 7] was “rapid decrease in concentration”. For the same compound, the “drug concentration in the bottom channel” value ([2]; flow conditions) was “increased substantially compared to static conditions”.

In the case of `CC(C)NCC(O)COc1cccc2ccccc12` (centres unmarked) [propranolol], the “adsorption onto the PDMS device” value [1] is reported as “substantially adsorbed”, the “drug concentration in the top channel” value [2, 7] is reported as “rapidly decreased” and the “drug concentration … vs WT chips” value ([2]; flow conditions, 24 and 48 h) is reported as “significantly lower than those in the WT chips”. For the same compound, the “drug concentration in the bottom channel” value ([2]; flow conditions) was “increased substantially”.

In the case of `CC(=O)Nc1ccc(O)cc1` [APAP, acetaminophen], the “oral bioavailability (F)” value [3] is listed as over 0.7, the “drug concentration in the top channel, genome-edited chip vs WT chip” value ([2]; flow conditions, 24 and 48 h) is listed as “slightly higher than those in the WT chip” and the “drug concentration in the top channel” value ([2]; flow conditions, 24 and 48 h, 10 μM) is listed as “decreased compared to the initial concentration of 10 μM”. For the same compound, the “drug concentration in the bottom channel” value ([2]; flow conditions) was “increased substantially”, the “drug concentration in the bottom channel” value ([2]; static conditions, 10 μM) was “increased in a time-dependent manner” and the “drug concentration in the top channel” value ([2]; static conditions, 10 μM) was “remained constant”.

In the case of `CCC(C)n1ncn(-c2ccc(N3CCN(c4ccc(OCC5COC(Cn6cncn6)(c6ccc(Cl)cc6Cl)O5)cc4)CC3)cc2)c1=O` (centres unmarked) [itraconazole], the “effect on the area under the curve (AUC) of triazolam” value [4] is given as “increase the area under the curve (AUC) of triazolam”.

For `O=C(O)Cc1ccccc1Nc1c(Cl)cccc1Cl` [diclofenac], the “drug concentration in the top channel” value [2, 7] was “slightly reduced compared to the initial concentration of 10 μM”.

For `NCC(O)COc1cccc2ccccc12` (centres unmarked) [ISOPRO, desisopropylpropranolol], the “metabolite concentration in the bottom channel” value (CYP1A2; flow conditions vs static) was “increased under flow conditions”, the “metabolite concentration in the top channel” value (CYP1A2; flow conditions vs static) was “no change was observed” and the “metabolite concentration, genome-edited chip vs WT chip” value (shortened to “metabolite concentration … vs WT chip”) (CYP1A2; flow, top and bottom channels, 1 μM propranolol) was “higher in the genome-edited chip under flow conditions compared to the WT chip”. The “time of peak concentration in the bottom channel” value (CYP1A2; genome-edited chip, flow conditions) was 24 h.

For 1’-hydroxy bufuralol [1-OH bufuralol], the “metabolite concentration … vs WT chip” value (CYP2D6; flow, top and bottom channels, 24 and 48 h) was “higher in the genome-edited chip compared to the WT chip” and the “metabolite concentration, flow vs static conditions” value (CYP2D6; genome-edited chip) was “higher than that observed in the static conditions”.

For `Cn1c(=O)c2c(ncn2C)n(C)c1=O` [caffeine], the “oral bioavailability (F)” value [3] is listed as over 0.7.

For Lucifer Yellow CH [LY], the “Papp of LY in chips compared to Caco-2 cells mono-culture” value [5] was “lower in both the WT and genome-edited chips”.

With `O=C(O)Cc1ccccc1Nc1c(Cl)cc(O)cc1Cl` [4-OH diclofenac, 4’-hydroxy diclofenac] the “metabolite concentration … vs WT chip” value (CYP2C9; flow, top and bottom channel, 24 and 48 h) was “higher in the genome-edited chip Flow compared to the WT chip Flow” and the “metabolite concentration, static vs flow conditions” value (CYP2C9; top channel of genome-edited chip) was “higher than that under flow conditions”.

In the case of `OCc1nnc2n1-c1ccc(Cl)cc1C(c1ccccc1Cl)=NC2` [α-OH triazolam, α-hydroxy triazolam], the “metabolite concentration … vs WT chip” value (CYP3A4) is reported as “higher than that observed in the WT chip”.

In the case of `Cc1nnc2n1-c1ccc(Cl)cc1C(c1ccccc1Cl)=NC2` [triazolam], the “adsorption onto the PDMS device” value [1] is reported as “substantially adsorbed”, the “drug concentration in the top channel” value [2, 7] is reported as “rapid decrease in concentration” and the “drug concentration … vs WT chips” value ([2]; flow conditions, 24 and 48 h) is reported as “lower than those in WT chips”. The “drug concentration in the bottom channel” value ([2]; flow conditions) was “increased substantially”.

With `CC(C)NCC(O)COc1ccc(O)c2ccccc12` (centres unmarked) [4-OH propranolol, 4-hydroxy propranolol] the stability [6] was “extremely unstable”.
